Measured values reported in patent US9688662B2, “N-(2,3-dihydro-1H-pyrrolo[2,3-b]pyridin-5-yl)-4-quinazolinamine and N-(2,3-dihydro-1H-indol-5-yl)-4-quinazolinamine derivatives as perk inhibitors” (Janssen Pharmaceutica NV, priority 2013, dated 2017).

Experiments:
PERK [1] = biological target: T1, PERK (Homo sapiens, UniProt Q9NZJ5); test: Cell-based PERK inhibition assay (TR-FRET, phosphorylation of GFP-eIF2 alpha in HEK293 cells, tunicamycin)
T1 sequence (Q9NZJ5 30-1116): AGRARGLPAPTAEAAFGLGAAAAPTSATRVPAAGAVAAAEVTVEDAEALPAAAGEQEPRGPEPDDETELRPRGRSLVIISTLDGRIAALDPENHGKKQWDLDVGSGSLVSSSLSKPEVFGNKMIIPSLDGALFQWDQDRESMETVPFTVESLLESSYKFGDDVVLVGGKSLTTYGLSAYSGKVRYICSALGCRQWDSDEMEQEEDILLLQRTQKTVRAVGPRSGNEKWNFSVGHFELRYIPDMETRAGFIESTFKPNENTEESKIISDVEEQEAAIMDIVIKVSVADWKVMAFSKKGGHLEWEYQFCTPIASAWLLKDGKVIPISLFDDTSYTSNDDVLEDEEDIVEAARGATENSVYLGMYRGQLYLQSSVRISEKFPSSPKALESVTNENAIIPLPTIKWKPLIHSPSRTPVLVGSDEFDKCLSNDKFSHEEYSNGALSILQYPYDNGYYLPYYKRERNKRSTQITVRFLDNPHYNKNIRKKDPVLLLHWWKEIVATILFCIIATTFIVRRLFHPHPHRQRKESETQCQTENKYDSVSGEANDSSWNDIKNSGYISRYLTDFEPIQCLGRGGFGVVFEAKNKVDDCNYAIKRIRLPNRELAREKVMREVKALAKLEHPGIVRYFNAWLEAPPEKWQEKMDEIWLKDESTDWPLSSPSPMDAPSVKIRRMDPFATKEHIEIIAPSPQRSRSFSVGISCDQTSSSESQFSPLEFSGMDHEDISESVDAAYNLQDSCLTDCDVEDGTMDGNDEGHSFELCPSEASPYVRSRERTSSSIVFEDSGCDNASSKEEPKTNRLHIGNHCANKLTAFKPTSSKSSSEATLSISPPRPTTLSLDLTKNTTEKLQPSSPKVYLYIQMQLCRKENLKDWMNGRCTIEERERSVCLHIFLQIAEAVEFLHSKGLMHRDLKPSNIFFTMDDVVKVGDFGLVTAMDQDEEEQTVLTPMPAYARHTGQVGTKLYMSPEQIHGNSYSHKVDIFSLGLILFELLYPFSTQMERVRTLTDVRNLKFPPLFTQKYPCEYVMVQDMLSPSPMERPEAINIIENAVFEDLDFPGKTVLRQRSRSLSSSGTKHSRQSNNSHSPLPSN
Description: A cell-based TR-FRET assay to measure inhibition of phosphorylation of GFP-eIF2 alpha expressed in HEK293 cells by compounds was set up as follows:
LanthaScreen® eIF2α GripTite cells (Invitrogen M4387) were plated and incubated for 16-20 h at 37° C. and 5% CO2, incubated with test compounds for 60 min, and then stimulated with tunicamycin (2 microg/ml) for 120 min. Culture medium was aspirated from the wells and, the cells were lysed in LanthaScreen® Cellular Assay Lysis Buffer (Invitrogen; PV5598), supplemented with protease inhibitor cocktail (Sigma P8340, 1/1000 dilution) and phosphatase inhibitor cocktail (Sigma P0044, 1/1000 dilution), including 2 nM terbium-labeled eIF2a pSer52 antibody (Invitrogen; PV4816).

PERK [2] = biological target: T1, PERK; test: In-vitro PERK enzyme inhibition assay (LanthaScreen, KIN_PERK); type: biochemical; set-up: GST (N); purchased Invitrogen PV5106; conditions: recombinant GST-PERK, GFP-eIF2 alpha substrate, 5 μM ATP, 60 minutes; for IC50: read-out: KIN_PERK pIC50 (converted)
Description: Pharmacology i) In-Vitro PERK Enzyme Inhibition Assay (KIN_PERK pIC50)
The compounds of the invention were tested for inhibitory activity against PERK in an enzyme inhibition assay.
A biochemical PERK kinase assay using LanthaScreen® technology from Invitrogen using recombinant GST-PERK (Invitrogen PV5106), GFP-eIF2 alpha (full length) as substrate (Invitrogen PV4809) and the Terbium-labeled antibody (Tb-anti-peIF2alpha (pSer52); Invitrogen PV4816) as detection reagent, was performed essentially as described by the manufacturer, using following specific parameters: […]

[3] = HEK293 (LanthaScreen eIF2α GripTite) cells, compounds 60 min, tunicamycin 2 microg/ml 120 min, read-out: P-eIF2alpha_Lantha_cell pIC50 (converted)
[4] = HEK293 (LanthaScreen eIF2α GripTite) cells, compounds 60 min, tunicamycin 2 microg/ml 120 min

SMILES	IC50 (PERK [1]; [3]) [nM]	IC50 (PERK [2]) [nM]	further results
COc1cc2ncnc(Nc3ccc4c(c3)CCN4C(=O)Cc3cc4ccccc4[nH]3)c2cc1OC [Compound 32]	> 30200	398	
COc1cc2ncnc(Nc3ccc4c(c3)CCN4C(=O)Cn3ccnc3)c2cc1OC [Compound 53]	> 10000	> 10000	melting point: 174 °C
COc1cc2ncnc(Nc3ccc4c(c3)C(F)(F)CN4C(=O)Cc3cc(F)ccc3F)c2cc1OC [Compound 18]	794	31.6	
COc1ccc2ncnc(Nc3ccc4c(c3)CCN4C(=O)Cc3cc(F)cc(C(F)(F)F)c3)c2c1 [Compound 44]	> 30200	~21.4	
COc1cc2ncnc(Nc3ccc4c(c3)CCN4C(=O)Cc3csc4ccccc34)c2cc1OC [Compound 16]	501	5.01	melting point: 161 °C
COc1ccc2[nH]c(C)c(CC(=O)N3CCc4cc(Nc5ncnc6cc(OC)c(OC)cc56)ccc43)c2c1 [Compound 6]	79.4	1.58	
COc1cc2ncnc(Nc3ccc4c(c3)CCN4C(=O)Cn3ncc4ccccc43)c2cc1OC [Compound 24]	3160	79.4	
COc1cc2ncnc(Nc3ccc4c(c3)CCN4C(=O)Cc3c(-c4ccccc4)[nH]c4ccccc34)c2cc1OC [Compound 33]		6310	
COc1cc2ncnc(Nc3ccc4c(c3)CCN4C(=O)Cc3cc(F)cc(C(F)(F)F)c3)c2cc1OC [Compound 43]	1580	2	
COc1cc2ncnc(Nc3ccc4c(c3F)CCN4C(=O)Cc3cc(F)ccc3F)c2cc1OC [Compound 3]	50.1	0.398	melting point: 210 °C
COc1cc2ncnc(Nc3ccc4c(c3)CCN4C(=O)Cn3cnc4ccccc43)c2cc1OC [Compound 31]	> 30200	63.1	
COc1cc2ncnc(Nc3ccc4c(c3)CCN4C(=O)Cc3ccnn3C)c2cc1OC [Compound 47, 1-[5-[(6,7-dimethoxyquinazolin-4-yl)amino]indolin-1-yl]-2-(2-methylpyrazol-3-yl)ethanone]	6310	63.1	
COc1cc2ncnc(Nc3ccc4c(c3)CCN4C(=O)Cc3n[nH]c4ccccc34)c2cc1OC [Compound 26]	3160	63.1	
COc1cc2ncnc(Nc3ccc4c(c3)CCN4C(=O)Cn3c(C)cc4ccc(F)cc43)c2cc1OC [Compound 7]			P-eIF2alpha_Lantha_cell pIC50 (PERK [1]; [4]): 7.1; KIN_PERK pIC50 (PERK [2]): 8.5
COc1cc2ncnc(Nc3ccc4c(c3)CCN4C(=O)Cc3c(-c4cnoc4)cnn3C)c2cc1OC [Compound 50]	3160	79.4	
COc1cc2ncnc(Nc3ccc4c(c3)CCN4C(=O)Cc3c(C)[nH]c4ccccc34)c2cc1OCCCN1CCOCC1 [Compound 8]	158		melting point: 216 °C
COc1cc2ncnc(Nc3ccc4c(c3)CCN4C(=O)Cc3c(-c4cnn(C)c4)cnn3C)c2cc1OC [Compound 52]	> 30200	631	
COc1cc2ncnc(Nc3ccc4c(c3)CCN4C(=O)Cc3c(C)[nH]c4ccc(F)cc34)c2cc1OC [Compound 2]		0.631	IC50 (PERK [1]): 25.1 nM
COc1cc2ncnc(Nc3ccc4c(c3)CCN4C(=O)Cc3c[nH]c4ncccc34)c2cc1OC [Compound 27]	3980	63.1	
COc1cc2ncnc(Nc3ccc4c(c3)CCN4C(=O)Cc3cn(C(C)C)c4ccccc34)c2cc1OC [Compound 37]		1580	
O=C(Cc1cc(F)ccc1F)N1CCc2cc(Nc3ncnc4cc5c(cc34)OCO5)ccc21 [Compound 35]		> 10000	

SMILES	IC50 (PERK [1]; [3]) [nM]	IC50 (PERK [2]) [nM]	further results
COc1cc2ncnc(Nc3ccc4c(c3)CCN4C(=O)Cc3c(C)[nH]c4c(F)cccc34)c2cc1OC [Compound 4]			P-eIF2alpha_Lantha_cell pIC50 (PERK [1]; [4]): 7.4; KIN_PERK pIC50 (PERK [2]): 8.8
Cc1[nH]c2ccccc2c1CC(=O)N1CCc2cc(Nc3ncnc4cc5c(cc34)OCO5)ccc21 [Compound 10]	158	3.98	
COc1cc2ncnc(Nc3ccc4c(c3)CCN4C(=O)CN3C(=O)c4ccccc4C3=O)c2cc1OC [Compound 36]		3160	melting point: 190 °C
COc1cc2ncnc(Nc3cnc4c(c3)CCN4C(=O)Cc3cc(F)cc(C(F)(F)F)c3)c2cc1OC [Compound 38]		3160	
COCCOc1cc2ncnc(Nc3ccc4c(c3)CCN4C(=O)Cc3c(C)[nH]c4ccccc34)c2cc1OCCOC [Compound 14]	398		melting point: 186 °C
COc1cc2ncnc(Nc3ccc4c(c3)CCN4C(=O)Cc3ccccc3)c2cc1OC [Compound 21]	1260	25.1	
COc1cc2ncnc(Nc3ccc4c(c3)CCN4C(=O)Cc3cn(C)c4ccccc34)c2cc1OC [Compound 12]	200	5.01	
COc1cc2ncnc(Nc3ccc4c(c3)CCN4C(=O)Cc3cccc(C)n3)c2cc1OC [Compound 41]	794		melting point: 248 °C
COc1cc2ncnc(Nc3ccc4c(c3)CCN4C(=O)Cc3c(-c4ccsc4)cnn3C)c2cc1OC [Compound 51]	31600	251	
COc1cc2ncnc(Nc3ccc4c(c3)CCN4C(=O)Cc3ccsc3)c2cc1OC [Compound 22]	2000	63.1	
COc1cc2ncnc(Nc3ccc4c(c3)CCN4C(=O)Cc3c(-c4ccoc4)cnn3C)c2cc1OC [Compound 49]	3160	50.1	
COc1cc2ncnc(Nc3ccc4c(c3)CCN4C(=O)Cc3c(C)nc4ccccn34)c2cc1OC [Compound 19]	1260	12.6	
COc1cc2ncnc(Nc3ccc4c(c3)CCN4C(=O)Cc3c(-c4cccs4)cnn3C)c2cc1OC [Compound 46, 1-[5-[(6,7-dimethoxyquinazolin-4-yl)amino]indolin-1-yl]-2-[2-methyl-4-(2-thienyl)pyrazol-3-yl]ethanone]	~11500	398	
COc1cc2ncnc(Nc3ccc4c(c3)CCN4C(=O)Cn3nc(C)c4ccccc43)c2cc1OC [Compound 9]	251	15.8	
COc1cc2ncnc(Nc3ccc4c(c3)CCN4C(=O)Cn3ccc4ccc(F)cc43)c2cc1OC [Compound 13]	200	3.98	
COc1ccc2c(Nc3ccc4c(c3)CCN4C(=O)Cc3cc(F)cc(C(F)(F)F)c3)ncnc2c1 [Compound 45]	> 30200	39.8	
COc1cc2ncnc(Nc3ccc4c(c3)CCN4C(=O)Cn3c(=O)n(C)c4ccccc43)c2cc1OC [Compound 29]	> 30200	50.1	
COc1cc2ncnc(Nc3ccc4c(c3)CCN4C(=O)Cc3n[nH]c4ccc(F)cc34)c2cc1OC [Compound 23]	2000	31.6	
COc1cc2ncnc(Nc3ccc4c(c3)CCN4C(=O)COc3ccccc3C(C)=O)c2cc1OC [Compound 25]	3160	79.4	
COc1cc2ncnc(Nc3ccc4c(c3)CCN4C(=O)CN3Cc4ccccc4C3=O)c2cc1OC [Compound 34]		1580	
COc1cc2ncnc(Nc3ccc4c(c3)CCN4C(=O)Cc3c(-c4ccccc4)cnn3C)c2cc1OC [Compound 48]	1260	251	
